Counter-ions that a name gives are not always drawn.
melting point | Compound
197 °C | CCOC(=O)C(Cc1ccc(CN2CC(=O)NS2(=O)=O)cc1)(NC(C)=O)C(=O)OCC [Example 10-23, 2-Acetylamino-2-[4-(1,1,4-trioxo-1,2,5-thiadiazolidin-2-ylmethyl)-benzyl]-malonic acid diethyl ester]
180 °C | O=C1CN(c2ccc(CC3NC(=O)c4ccccc4NC3=O)cc2O)S(=O)(=O)N1 (centres unmarked) [Example 44, 3-[3-Hydroxy-4-(1,1,4-trioxo-[1,2,5]thiadiazolidin-2-yl)-benzyl]-3,4-dihydro-1H-benzo[1,4]diazepine-2,5-dione]
191 to 193 °C | O=C1CN(c2ccc(I)cc2)S(=O)(=O)N1 [Example 45, 5-(4-Iodo-phenyl)-1,1-dioxo-1,2,5-thiadiazolidin-3-one]
70 to 90 °C | Cc1cc(OCC(=O)NCc2ccccc2)ccc1N1CC(=O)NS1(=O)=O [Example 43, N-Benzyl-2-[3-methyl-4-(1,1,4-trioxo-[1,2,5]thiadiazolidin-2-yl)-phenoxy]-acetamide]
255 to 265 °C | CCn1c(C)nc2cc(CN3CC(=O)NS3(=O)=O)ccc21 (as salt: TFA) [Example 11, 5-(1-Ethyl-2-methyl-1H-benzoimidazol-5-ylmethyl)-1,1-dioxo-1-1,2,5-thiadiazolidin-3-one]
> 260 °C | COc1ccc(N2CC(=O)NS2(=O)=O)c(OC)c1.[K]
70 to 75 °C | Cc1nc2cc(CN3CC(=O)NS3(=O)=O)ccc2n1CCC(C)C [Example 12, 5-[2-Methyl-1-(3-methyl-butyl)-1H-benzoimidazol-5-ylmethyl]-1,1-dioxo-1-1,2,5-thiadiazolidin-3-one]
101 to 103 °C | O=C1CN(Cc2cccc(I)c2)S(=O)(=O)N1 [Example 4, 5-(3-Iodobenzyl)-1,1-dioxo-1,2,5-thiadiazolidin-3-one]

Source: patent US20040023974A1, “Cyclic sulfamide derivatives and methods of use” (priority 2002, published 2004)
